Patent publication US10517889B2, “Modulators of SMAD7 expression” (Ionis Pharmaceuticals, Inc., priority 2017, dated 2019)
Where “and” joins values, the source holds several entries; their conditions need not be identical. Equal entries are not always repeated. Strand notation (5' to 3'): a small letter for the sugar, then the base; units joined by * are phosphorothioate-linked, units joined directly phosphodiester-linked; [ ] holds rarer units or linkages, { } end groups; capitals alone tell only the bases. k = constrained ethyl (cEt); [5mC] = 5-methylcytosine; d = 2'-deoxy (DNA)

tested on: human SMAD7 mRNA; assay: Antisense inhibition of human SMAD7 mRNA expression in Hep3B cells by 3-10-3 cEt gapmers, 10,000 nM, electroporation (Example 2); type: cell-based; conditions: Hep3B cells, electroporation with 10,000 nM antisense oligonucleotide, approximately 24 hours, primer probe set RTS5062, relative to untreated control cells
In short: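 qRT-PCR (RTS5062) of SMAD7 mRNA, normalised to RIBOGREEN total RNA, gave percent inhibition relative to untreated controls. Hep3B cells at 20,000 per well received 10,000 nM oligonucleotide by electroporation, with ~24 h treatment.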

Substance	% inhibition of SMAD7 mRNA expression	% Inhibition [%]
799010 (k[5mC]*kG*kT*dT*dG*dT*d[5mC]*dT*d[5mC]*d[5mC]*d[5mC]*d[5mC]*dA*kT*k[5mC]*kT; antisense) [compound 799010]	57%	–
799011 (k[5mC]*kA*kA*dA*dA*d[5mC]*dA*dA*dA*dG*dA*dG*d[5mC]*kA*k[5mC]*kG; antisense) [compound 799011]	35%	–
799012 (kA*kT*kA*dA*dG*dA*dG*dA*d[5mC]*dA*d[5mC]*dA*dA*kA*kA*k[5mC]; antisense) [compound 799012]	43%	–
799013 (kT*k[5mC]*k[5mC]*dA*dT*dA*dA*dG*dA*dG*dA*d[5mC]*dA*k[5mC]*kA*kA; antisense) [compound 799013]	–	37
799014 (kA*k[5mC]*kA*dT*d[5mC]*d[5mC]*dA*dT*dA*dA*dG*dA*dG*kA*k[5mC]*kA; antisense) [compound 799014]	–	29
799015 (kG*kG*kG*dA*d[5mC]*dA*dT*d[5mC]*d[5mC]*dA*dT*dA*dA*kG*kA*kG; antisense) [compound 799015]	–	25
799016 (k[5mC]*kA*kA*dA*d[5mC]*d[5mC]*dT*d[5mC]*dT*d[5mC]*dT*dG*d[5mC]*kT*kG*kG; antisense) [compound 799016]	–	30
799017 (kT*kG*k[5mC]*dA*dA*dA*d[5mC]*d[5mC]*dT*d[5mC]*dT*d[5mC]*dT*kG*k[5mC]*kT; antisense) [compound 799017]	–	0
799018 (k[5mC]*kT*kG*d[5mC]*dA*dA*dA*d[5mC]*d[5mC]*dT*d[5mC]*dT*d[5mC]*kT*kG*k[5mC]; antisense) [compound 799018]	–	29
799019 (kA*k[5mC]*kT*dG*d[5mC]*dA*dA*dA*d[5mC]*d[5mC]*dT*d[5mC]*dT*k[5mC]*kT*kG; antisense) [compound 799019]	–	36
799020 (kG*kA*k[5mC]*dT*dG*d[5mC]*dA*dA*dA*d[5mC]*d[5mC]*dT*d[5mC]*kT*k[5mC]*kT; antisense) [compound 799020]	–	48
799021 (kG*kG*kA*d[5mC]*dT*dG*d[5mC]*dA*dA*dA*d[5mC]*d[5mC]*dT*k[5mC]*kT*k[5mC]; antisense) [compound 799021]	–	62
799022 (kG*kG*kG*dA*d[5mC]*dT*dG*d[5mC]*dA*dA*dA*d[5mC]*d[5mC]*kT*k[5mC]*kT; antisense) [compound 799022]	–	61
799023 (kT*kG*kG*dG*dA*d[5mC]*dT*dG*d[5mC]*dA*dA*dA*d[5mC]*k[5mC]*kT*k[5mC]; antisense) [compound 799023]	42%	–
799024 (k[5mC]*kT*kT*dG*dG*dG*dA*d[5mC]*dT*dG*d[5mC]*dA*dA*kA*k[5mC]*k[5mC]; antisense) [compound 799024]	0%	–
799025 (k[5mC]*kG*k[5mC]*dT*dT*dG*dG*dG*dA*d[5mC]*dT*dG*d[5mC]*kA*kA*kA; antisense) [compound 799025]	10%	–
799026 (k[5mC]*k[5mC]*kG*d[5mC]*dT*dT*dG*dG*dG*dA*d[5mC]*dT*dG*k[5mC]*kA*kA; antisense) [compound 799026]	1%	–
799027 (kA*k[5mC]*k[5mC]*dG*d[5mC]*dT*dT*dG*dG*dG*dA*d[5mC]*dT*kG*k[5mC]*kA; antisense) [compound 799027]	46%	–
799028 (kA*kG*kA*d[5mC]*dA*d[5mC]*d[5mC]*dG*d[5mC]*dT*dT*dG*dG*kG*kA*k[5mC]; antisense) [compound 799028]	37%	–
799029 (kG*kG*kA*dG*dA*dG*dA*d[5mC]*dA*d[5mC]*d[5mC]*dG*d[5mC]*kT*kT*kG; antisense) [compound 799029]	0%	–
799030 (kG*k[5mC]*kA*dG*dG*dA*dG*dA*dG*dA*d[5mC]*dA*d[5mC]*k[5mC]*kG*k[5mC]; antisense) [compound 799030]	52%	–
799031 (kT*kG*k[5mC]*d[5mC]*dT*d[5mC]*dT*dG*d[5mC]*d[5mC]*d[5mC]*d[5mC]*dA*k[5mC]*kT*kG; antisense) [compound 799031]	46%	–
799032 (kA*kG*kG*dT*dA*d[5mC]*dT*dG*d[5mC]*d[5mC]*dT*d[5mC]*dT*kG*k[5mC]*k[5mC]; antisense) [compound 799032]	42%	–
799033 (k[5mC]*k[5mC]*k[5mC]*dA*dG*dG*dT*dA*d[5mC]*dT*dG*d[5mC]*d[5mC]*kT*k[5mC]*kT; antisense) [compound 799033]	–	35
799034 (k[5mC]*kT*kT*dG*d[5mC]*d[5mC]*d[5mC]*dA*dG*dG*dT*dA*d[5mC]*kT*kG*k[5mC]; antisense) [compound 799034]	–	12
799035 (k[5mC]*kG*k[5mC]*d[5mC]*dA*dG*d[5mC]*dT*dT*dG*d[5mC]*d[5mC]*d[5mC]*kA*kG*kG; antisense) [compound 799035]	–	0

Substance	% inhibition of SMAD7 mRNA expression	% Inhibition [%]
799036 (kA*kG*k[5mC]*d[5mC]*dG*d[5mC]*d[5mC]*dA*dG*d[5mC]*dT*dT*dG*k[5mC]*k[5mC]*k[5mC]; antisense) [compound 799036]	–	8
799037 (k[5mC]*k[5mC]*k[5mC]*d[5mC]*dA*dG*d[5mC]*d[5mC]*dG*d[5mC]*d[5mC]*dA*dG*k[5mC]*kT*kT; antisense) [compound 799037]	–	9
799038 (kG*kG*kA*d[5mC]*d[5mC]*d[5mC]*d[5mC]*dA*dG*d[5mC]*d[5mC]*dG*d[5mC]*k[5mC]*kA*kG; antisense) [compound 799038]	–	19
799039 (kT*kG*k[5mC]*dT*dG*dG*dG*dA*d[5mC]*d[5mC]*d[5mC]*d[5mC]*dA*kG*k[5mC]*k[5mC]; antisense) [compound 799039]	–	19
799040 (kA*kG*k[5mC]*dT*dG*d[5mC]*dT*dG*dG*dG*dA*d[5mC]*d[5mC]*k[5mC]*k[5mC]*kA; antisense) [compound 799040]	–	51
799041 (kG*kG*k[5mC]*dA*dG*d[5mC]*dT*dG*d[5mC]*dT*dG*dG*dG*kA*k[5mC]*k[5mC]; antisense) [compound 799041]	–	22
799042 (kT*kG*k[5mC]*dT*d[5mC]*d[5mC]*dT*dG*dG*d[5mC]*dA*dG*d[5mC]*kT*kG*k[5mC]; antisense) [compound 799042]	–	33
799043 (kA*kG*k[5mC]*d[5mC]*dG*dT*dG*d[5mC]*dT*d[5mC]*d[5mC]*dT*dG*kG*k[5mC]*kA; antisense) [compound 799043]	0% and 10%	–
799044 (k[5mC]*kA*kG*dA*dG*d[5mC]*d[5mC]*dG*dT*dG*d[5mC]*dT*d[5mC]*k[5mC]*kT*kG; antisense) [compound 799044]	0%	–
799045 (kG*kG*kA*d[5mC]*dA*dG*dA*dG*d[5mC]*d[5mC]*dG*dT*dG*k[5mC]*kT*k[5mC]; antisense) [compound 799045]	37%	–
799046 (antisense kG*kG*k[5mC]*dT*dT*dT*d[5mC]*d[5mC]*d[5mC]*dA*dG*dG*d[5mC]*kT*kG*kG) [compound 799046]	0%	–
799047 (antisense kT*kT*kG*dA*dT*dG*dA*dG*dG*dG*dA*dG*dA*kG*kG*kA) [compound 799047]	63%	–
799048 (antisense kT*k[5mC]*k[5mC]*dT*dT*dG*dA*dT*dG*dA*dG*dG*dG*kA*kG*kA) [compound 799048]	60%	–
799049 (antisense kG*k[5mC]*k[5mC]*d[5mC]*dG*dT*dG*dT*d[5mC]*d[5mC]*dT*dT*dG*kA*kT*kG) [compound 799049]	44%	–
799050 (antisense kA*k[5mC]*kA*dG*dG*d[5mC]*d[5mC]*d[5mC]*dG*dT*dG*dT*d[5mC]*k[5mC]*kT*kT) [compound 799050]	36%	–
799051 (antisense kT*kG*kG*dA*d[5mC]*dA*dG*dG*d[5mC]*d[5mC]*d[5mC]*dG*dT*kG*kT*k[5mC]) [compound 799051]	32%	–
799052 (antisense k[5mC]*kT*kG*dT*dG*dG*dA*d[5mC]*dA*dG*dG*d[5mC]*d[5mC]*k[5mC]*kG*kT) [compound 799052]	40%	–
799053 (antisense kA*kG*k[5mC]*d[5mC]*dT*dG*dT*dG*dG*dA*d[5mC]*dA*dG*kG*k[5mC]*k[5mC]) [compound 799053]	–	0
799054 (antisense k[5mC]*kA*kG*dA*dA*dG*d[5mC]*d[5mC]*dT*dG*dT*dG*dG*kA*k[5mC]*kA) [compound 799054]	–	15
799055 (antisense kG*k[5mC]*kT*d[5mC]*dA*dG*dA*dA*dG*d[5mC]*d[5mC]*dT*dG*kT*kG*kG) [compound 799055]	–	19
799056 (antisense k[5mC]*kG*k[5mC]*dT*dG*d[5mC]*dT*d[5mC]*dA*dG*dA*dA*dG*k[5mC]*k[5mC]*kT) [compound 799056]	–	28
799057 (antisense kG*kG*k[5mC]*dT*d[5mC]*dG*d[5mC]*dT*dG*d[5mC]*dT*d[5mC]*dA*kG*kA*kA) [compound 799057]	–	0
799058 (antisense kA*kG*k[5mC]*dA*dG*dG*d[5mC]*dT*d[5mC]*dG*d[5mC]*dT*dG*k[5mC]*kT*k[5mC]) [compound 799058]	–	0
799059 (antisense kA*k[5mC]*kT*dA*dG*d[5mC]*dA*dG*dG*d[5mC]*dT*d[5mC]*dG*k[5mC]*kT*kG) [compound 799059]	–	18
799060 (antisense kG*k[5mC]*k[5mC]*dA*d[5mC]*dT*dA*dG*d[5mC]*dA*dG*dG*d[5mC]*kT*k[5mC]*kG) [compound 799060]	–	37
